Data as given in the supplement of paper PMC10307832.

Assays:
Assay in all cases: relative viability (nuclei count vs DMSO), 5 days (fraction); higher = more cells survive
[1] = compound: Cc1ccc2nc(NCCN)c3ncc(C)n3c2c1 + CC(=O)c1c(C)c2cnc(Nc3ccc(N4CCNCC4)cn3)nc2n(C2CCCC2)c1=O [Palbociclib] (partner 0.5 µM)
Summary of the method: (§1)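 Dosing by pin tool came one day after lung cancer cell lines were seeded in 1536-well plates, using either one drug or a fixed anchor-drug dose plus five library-drug doses (not always all listed) in √10 steps. After 5 days, nuclei were counted on 4× images. Relative viability is treated-well nuclei count divided by vehicle-well nuclei count, and values are medians of duplicate plates.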

[2] = compound: Cc1ccc2nc(NCCN)c3ncc(C)n3c2c1 + C[C@@H](Oc1cc(-c2cnn(C3CCNCC3)c2)cnc1N)c1c(Cl)ccc(F)c1Cl [Crizotinib] (partner 1 µM)
Summary of the method: as §1

[3] = compound: O=C(/C=C/c1ccccc1)NC(NC(=S)Nc1cccc2cccnc12)C(Cl)(Cl)Cl [Salubrinal] + CC(C)C[C@H](NC(=O)[C@H](Cc1ccccc1)NC(=O)c1cnccn1)B(O)O [Bortezomib] (partner 0.002 µM)
Summary of the method: as §1

[4] = compound: O=C(/C=C/c1ccccc1)NC(NC(=S)Nc1cccc2cccnc12)C(Cl)(Cl)Cl [Salubrinal] + O=C(CCCCCCC(=O)Nc1ccccc1)NO [Vorinostat] (partner 1 µM)
Summary of the method: as §1

| Cell Line | relative viability ([1]; first compound 0.04 µM) | relative viability ([1]; first compound 0.1265 µM) | relative viability ([1]; first compound 0.4 µM) | relative viability ([1]; first compound 1.265 µM) | relative viability ([1]; first compound 4 µM) | relative viability ([2]; first compound 0.04 µM) | relative viability ([2]; first compound 0.1265 µM) | relative viability ([2]; first compound 0.4 µM) | relative viability ([2]; first compound 1.265 µM) | relative viability ([2]; first compound 4 µM) | relative viability ([3]; first compound 0.08 µM) | relative viability ([3]; first compound 0.253 µM) | relative viability ([3]; first compound 0.8 µM) | relative viability ([3]; first compound 2.53 µM) | relative viability ([3]; first compound 8 µM) | relative viability ([4]; first compound 0.08 µM) | relative viability ([4]; first compound 0.253 µM) | relative viability ([4]; first compound 0.8 µM) | relative viability ([4]; first compound 2.53 µM) | relative viability ([4]; first compound 8 µM) |
| --- | --- | --- | --- | --- | --- | --- | --- | --- | --- | --- | --- | --- | --- | --- | --- | --- | --- | --- | --- | --- |
| ChaGo-K-1 | 0.929 | 0.919 | 0.919 | 0.891 | 0.907 | 1.17 | 1.03 | 1.15 | 0.989 | 0.922 | 1.06 | 0.759 | 1.6 | 1.2 | 1.03 | 0.834 | 0.683 | 0.901 | 0.814 | 0.77 |
| EBC-1 |  |  |  |  |  | 0.219 | 0.204 | 0.206 | 0.207 | 0.17 | 0.719 | 0.544 | 0.504 | 0.501 | 0.466 |  |  |  |  |  |
| EKVX | 0.441 | 0.358 | 0.36 | 0.351 | 0.295 | 0.921 | 0.794 | 1.02 | 1.05 | 0.903 | 1.14 | 0.821 | 1.17 | 1.06 | 1.02 | 0.769 | 0.606 | 0.863 | 0.668 | 0.665 |
| EMC-BAC-2 | 0.55 | 0.536 | 0.509 | 0.521 | 0.486 | 0.761 | 0.728 | 0.735 | 0.733 | 0.775 | 1.16 | 0.974 | 1.09 | 1.16 | 1.17 | 0.388 | 0.477 | 0.798 | 0.514 | 0.494 |
| EPLC-272H | 0.337 | 0.348 | 0.315 | 0.257 | 0.249 | 0.948 | 0.846 | 1.06 | 0.948 | 0.91 | 0.884 | 0.756 | 1.11 | 1.1 | 0.855 | 0.464 |  | 0.539 | 0.427 | 0.336 |
| H3255 | 0.329 | 0.298 | 0.312 | 0.327 | 0.317 | 0.939 | 0.743 | 0.846 | 0.788 | 0.694 | 0.816 | 0.826 | 1.23 | 0.767 | 0.761 | 0.671 | 0.81 | 0.945 | 0.765 | 0.76 |
| HARA | 0.2 | 0.236 | 0.237 | 0.222 | 0.268 | 0.951 | 0.916 | 1.02 | 0.746 | 0.917 | 1.14 | 1.01 | 1.16 | 1.13 | 1.06 | 0.617 | 0.631 | 0.597 | 0.478 | 0.475 |
| HCC-15 | 0.789 | 0.773 | 0.616 | 0.708 | 0.485 | 0.791 | 0.8 | 0.779 | 0.742 | 0.693 | 1.13 | 0.804 | 1.14 | 1.15 | 0.997 | 0.952 | 0.784 | 0.866 | 0.826 | 0.804 |
| HCC-44 | 0.934 | 0.94 | 0.914 | 0.894 | 0.99 | 0.851 | 0.827 | 0.768 | 0.828 | 0.835 | 0.799 | 0.817 | 0.997 | 0.922 | 0.86 | 1.04 | 1.1 | 1.13 | 1 | 1.04 |
